In patent US11591341B2 (ALIGOS THERAPEUTICS, INC., priority 2019, dated 2023) one finds EC50 data, which are given here for 18 compounds.

The test system of the experiment is HBV. Put plainly: HBV-DNA Antiviral Assay Using HepG2.117 Cells (intracellular HBV DNA by qPCR). The class given is cell-based, hepatitis B virus (genotype D). The note with it: Hepatitis B virus, HepG2.117. In outline:
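Endpoint: qPCR copy number of intracellular HBV DNA after 3-day compound exposure, with inhibition set relative to the 2% DMSO control. The cells were doxycycline-free HepG2.117 carrying a Tet-off genotype D genome, dosed at nine 4-fold dilutions. A duplicate plate gave ATP-based viability (CC50).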
On the technique in general: Quantitative PCR measures a nucleic acid by following its amplification.
The EC50 is the concentration needed to bring the measured effect to its halfway point. Regarding `COc1ccc(-n2c(C(=O)NCc3ccccc3)c3n(c2=O)CC(C2CC2)N(C(=O)c2ccc(Br)c(Cl)c2)C3)cc1` (racemic) [Example 280, rac-(6R)-N-benzyl-7-(4-bromo-3-chloro-benzoyl)-6-cyclopropyl-2-(4-methoxyphenyl)-3-oxo-6,8-dihydro-5H-imidazo[1,5-a]pyrazine-1-carboxamide], the EC50 lay within 0.1 to 0.5 µM.

Compound `C[C@@H](NC(=O)c1c2n(c(=O)n1-c1ccc(OC3CC3)cc1)CCN(C(=O)c1ccc(Br)c(Cl)c1)C2)c1ccc(OC(F)F)cc1F` (racemic) [Example 313, 7-(4-bromo-3-chloro-benzoyl)-2-[4-(cyclopropoxy)phenyl]-3-oxo-N-[rac-(1R)-1-[4-(difluoromethoxy)-2-fluoro-phenyl]ethyl]-6,8-dihydro-5H-imidazo[1,5-a]pyrazine-1-carboxamide] displayed a concentration giving a half-maximal response (EC50) of 0.1 to 0.5 µM.

On to `C[C@@H]1CN(Cc2ccccc2)C(=O)c2c3n(c(=O)n2C1)CCN(C(=O)c1ccc(Br)c(Cl)c1)C3` (stereo in doubt) [Example 97, rac-(11R)-13-benzyl-4-(4-bromo-3-chloro-benzoyl)-11-methyl-4,7,9,13-tetrazatricyclo[7.5.0.0^2,7]tetradec-1-ene-8.14-dione], for which the 50% effective concentration (EC50) lay within 0.5 to 5 µM.

Turning to `NC(=O)c1ccc(-n2c(C(=O)NCc3ccccc3)c3n(c2=O)CCN(C(=O)c2ccc(Br)c(Cl)c2)C3)cc1` [Example 25, N-benzyl-7-(4-bromo-3-chloro-benozyl)-2-(4-carbamoylphenyl)-3-oxo-6,8-dihydro-5H-imidazo[1,5-a]pyrazine-1-carboxamide], the half-maximal effective concentration (EC50) was above 5 µM.

In turn, `C[C@@H](NC(=O)c1c2n(c(=O)n1-c1ccccc1)CCN(C(=O)c1ccc(Br)c(Cl)c1)C2)c1ccccc1` (stereo in doubt) [Example 37, 7-(4-bromo-3-chloro-benzoyl)-3-oxo-2-phenyl-N-[rac-(1R)-1-phenylethyl]-6,8-dihydro-5H-imidazo[1,5-a]pyrazine-1-carboxamide] returned a concentration for a half-maximal effect (EC50) of 0.5 to 5 µM.

`C[C@H](NC(=O)c1c2n(c(=O)n1-c1ccc(OCC(F)(F)F)cc1)CCN(C(=O)c1ccc(Br)c(Cl)c1)C2)c1ccc(OCC(N)=O)cc1F` (stereo in doubt) [Example 320, 7-(4-bromo-3-chloro-benzoyl)-3-oxo-N-[rac-(1S)-1-[4-(2-amino-2-oxo-ethoxy)-2-fluoro-phenyl]ethyl]-2-[4-(2,2,2-trifluoroethoxy)phenyl]-6,8-dihydro-5H-imidazo[1,5-a]pyrazine-1-carboxamide]: the EC50 is 0.1 to 0.5 µM.

`C[C@@H](NC(=O)c1c2n(c(=O)n1-c1ccc(OC3CC3)cc1)CCN(C(=O)c1ccc(Br)c(Cl)c1)C2)c1ccc(OC(C)(C)C(N)=O)cc1F` (stereo in doubt) [Example 339, 7-(4-bromo-3-chloro-benzoyl)-2-[4-(cyclopropoxy)phenyl]-3-oxo-N-[rac-(1R)-1-[4-(2-amino-1,1-dimethyl-2-oxo-ethoxy)-2-fluoro-phenyl]ethyl]-6,8-dihydro-5H-imidazo[1,5-a]pyrazine-1-carboxamide] gave an EC50 of 0.1 to 0.5 µM.

On to `O=C1COc2cc(-n3c(C(=O)NCc4ccccc4)c4n(c3=O)CCN(C(=O)c3ccc(Br)c(Cl)c3)C4)ccc2N1` [Example 404, N-benzyl-7-(4-bromo-3-chloro-benzoyl)-3-oxo-2-(3-oxo-4H-1,4-benzoxazin-7-yl)-6,8-dihydro-5H-imidazo[1,5-a]pyrazine-1-carboxamide], for which the concentration giving a half-maximal response (EC50) lay in the range of 0.5 to 5 µM.

`O=C(NCc1ccccc1-n1ccnc1)c1c2n(c(=O)n1-c1ccc(OCC(F)(F)F)cc1)CCN(C(=O)c1ccc(Br)c(Cl)c1)C2` [Example 263, 7-(4-bromo-3-chloro-benzoyl)-N-[(2-imidazol-1-ylphenyl)methyl]-3-oxo-2-[4-(2,2,2-trifluoroethoxy)phenyl]-6,8-dihydro-5H-imidazo[1,5-a]pyrazine-1-carboxamide]: the EC50 is 0.5 to 5 µM.

The compound `CCOc1ccc(-n2c(C(=O)NCc3ccccc3)c3n(c2=O)CCN(C(=O)c2ccc(Cl)c(Cl)c2)C3)cc1` [Example 51, N-benzyl-7-(3,4-dichlorobenzoyl)-2-(4-ethoxyphenyl)-3-oxo-6,8-dihydro-5H-imidazo[1,5-a]pyrazine-1-carboxamide] came in with an EC50 of 0.5 to 5 µM.

Turning to `CC(NC(=O)c1c2n(c(=O)n1-c1ccc(OC3CC3)cc1)CCN(C(=O)c1ccc(Br)c(Cl)c1)C2)c1ccccc1` (racemic) [Example 179, 7-(4-bromo-3-chloro-benzoyl)-2-[4-(cyclopropoxy)phenyl]-3-oxo-N-[rac-(1R)-1-phenylethyl]-6,8-dihydro-5H-imidazo[1,5-a]pyrazine-1-carboxamide], the EC50 lay in the range of 0.1 to 0.5 µM.

`O=C(NCc1ccccc1)c1c2n(c(=O)n1-c1ccccc1)CCN(C(=O)c1ccc(Cl)c(Cl)c1)C2` [Example 34, N-benzyl-7-(3,4-dichlorobenzoyl)-3-oxo-2-phenyl-6,8-dihydro-5H-imidazo[1,5-a]pyrazine-1-carboxamide] came in with an EC50 of 0.5 to 5 µM.

On to `Cc1ccc(-n2c(C(=O)NCc3ccccc3)c3n(c2=O)CCN(C(=O)c2ccc(Cl)c(Cl)c2)C3)cc1` [Example 122, N-benzyl-7-(3,4-dichlorobenzoyl)-3-oxo-2-(p-tolyl)-6,8-dihydro-5H-imidazo[1,5-a]pyrazine-1-carboxamide], for which the EC50 was 0.5 to 5 µM.

In turn, `COc1ccc(-n2c(C(=O)NCc3ccc4[nH]c(=O)[nH]c4c3)c3n(c2=O)CCN(C(=O)c2ccc(Cl)c(Cl)c2)C3)cc1` [Example 93, 7-(3,4-dichlorobenzoyl)-2-(4-methoxyphenyl)-3-oxo-N-[(2-oxo-1,3-dihydrobenzimidazol-5-yl)methyl]-6,8-dihydro-5H-imidazo[1,5-a]pyrazine-1-carboxamide] yielded a concentration for a half-maximal effect (EC50) above 5 µM.

Turning to `COc1ccc(-n2c(C(=O)NCc3ccc4ncccc4c3)c3n(c2=O)CCN(C(=O)c2ccc(Cl)c(Cl)c2)C3)cc1` [Example 92, 7-(3,4-dichlorobenzoyl)-2-(4-methoxyphenyl)-3-oxo-N-(6-quinolylmethyl)-6,8-dihydro-5H-imidazo[1,5-a]pyrazine-1-carboxamide], the half-maximal effective concentration (EC50) was in the range of 0.5 to 5 µM.

`CC1Cn2c(c(C(=O)N[C@@H](C)c3ccccc3F)n(-c3ccc(OC4CC4)cc3)c2=O)CN1C(=O)c1ccc(Br)c(Cl)c1` (mixture of isomers) [Example 334, (6SR)-7-(4-bromo-3-chloro-benzoyl)-2-[4-(cyclopropoxy)phenyl]-N-[(1S)-1-(2-fluorophenyl)ethyl]-6-methyl-3-oxo-6,8-dihydro-5H-imidazo[1,5-a]pyrazine-1-carboxamide]: the half-maximal effective concentration (EC50) is 0.1 to 0.5 µM.

With `COc1ccc(-n2c(C(=O)NCc3ccccc3)c3n(c2=O)C[C@H](C2CC2)N(C(=O)c2ccc(Br)c(Cl)c2)C3)cc1` (racemic) [Example 279, rac-(6S)-N-benzyl-7-(4-bromo-3-chloro-benzoyl)-6-cyclopropyl-2-(4-methoxyphenyl)-3-oxo-6,8-dihydro-5H-imidazo[1,5-a]pyrazine-1-carboxamide], the concentration for a half-maximal effect (EC50) lay in the range of 0.1 to 0.5 µM.

Regarding `O=C(NCc1ccccc1)c1c2n(c(=O)n1-c1ccc(N3CCCC3=O)cc1)CCN(C(=O)c1ccc(Br)c(Cl)c1)C2` [Example 412, N-benzyl-7-(4-bromo-3-chloro-benzoyl)-3-oxo-2-[4-(2-oxopyrrolidin-1-yl)phenyl]-6,8-dihydro-5H-imidazo[1,5-a]pyrazine-1-carboxamide], the EC50 lay in the range of 0.1 to 0.5 µM.
